Measurements reported in patent publication US4927808A, “γ-L-glutamyl-L-cysteine ethyl ester and pharmaceutical compositions containing the same as an effective ingredient” (Teijin Limited, priority 1986, dated 1990).
Like-named read-outs stand apart in the source and are kept apart here.

Columns and labels:
liver cells [1] = assay: Mitigation of decrease in glutathione levels in liver cells on coexistence with D,L-buthionine sulfoximine; type: cell-based, mice; conditions: 13 hours later, 100 = before addition
Experimental: The cultured liver cells were cultured for 13 hours after the addition of D,L-buthionine sulfoximine to the concentration of 0.3 mM and the present compound to the concentration of 1 mM and then the levels of cellular glutathione were measured. The similar measurements were made on the controls in which nothing was added and in which D,L-buthionine sulfoximine only was added.

liver cells [2] = assay: Recovery of cellular glutathione levels after decrease by D,L-buthionine sulfoximine and removal of the inhibitor; type: cell-based, mice; conditions: untreated = 100
Experimental: (§1) D, L-buthionine sulfoximine was added to the cultured liver cells to a density of 0.5 mM and cultivation was carried on for 16 hours. […] The changes of cellular glutathione levels were measured at that time. Thereafter the compounds studied were removed from the respective cultures whose culture media were then replaced with new ones containing carbon tetrachloride at a density of 0.5 μl/ml. After 1-hour cultivation, the action to prevent the necrosis of liver cells was examined by measuring the GPT activity of the respective culture supernatants and Trypan Blue staining test.
(§2) In Table 3, the changes of cellular glutathione levels are expressed by relative values based on the untreated value set at 100 and the action to prevent the necrosis of liver cells is indicated by the GPT activity of the culture supernatant and survival rate.

liver cells [3] = assay: Prevention of necrosis of liver cells by carbon tetrachloride (GPT activity, Trypan Blue staining); type: cell-based, mice; conditions: 1 mM for 2 hours after D,L-buthionine sulfoximine removal, then carbon tetrachloride 0.5 μl/ml for 1 hour; for Survival rate: Trypan Blue
Experimental: as §1, §2

[4] = test system: experimentally developed cataract induced by L-buthionine sulfoximine; assay: Protective effect on experimental cataract induced by L-buthionine sulfoximine; type: in vivo, mice; conditions: 16th day after birth
Excerpt: The cataract development rate in the table means the ratio of the experimental animals developing cataract to all the animals examined (11 to 12 mice per group) and the cataractous eye rate means the ratio of cataractous eyes to the whole number of eyes examined.

mouse newborns = conditions: for Surviving rate: after the ending of administration; for Effect on increment of animals' body weight suppressed by the toxicity of BSO: mouse, in vivo
Experimental: Experimental cataract was prepared according to the method of Calvin et al., Science, vol. 233, pp 553-555 (1986). More particularly, L-buthioninesulfoximine was administered subcutaneously to the ICR male mice at a dose of 4 mmol/kg for 3 successive days from the 9th day to the 11th day after birth every 2.5 hours 4 times a day to cause cataract. The rate of cataractgenesis was determined on the 16th day after birth. The test compounds were also given subcutaneously for 3 days from the 9th day to the 11th day after birth 4 times a day 1 hour before the administration of L-buthionine sulfoximine and thereafter the test compounds studied only were subcutaneously given 4 times a day at an interval of 2.5 hours on the consecutive 12th and 13th days after birth and the protective effect of the test compound on cataract formation was examined on the 16th day after birth. As the control compounds, glutathione, glutathione monoethyl ester, and γ-L-glutamyl-L-cysteine were also examined.
Acute toxicity of the present compound was examined where it is administered according to the schedule of Example 9 and compared with there of controls, glutathione, glutathione monoethyl ester, and γ-L-glutamyl-L-cysteine.

[5] = cited from earlier work
liver cells [6] = assay: Recovery of glutathione levels of liver cells after carbon tetrachloride treatment; type: cell-based, mice; conditions: 100 = before treatment
Experimental: After carbon tetrachloride was added to the cultured liver cells at a concentration of 0.5 μl/ml, culture was continued for 1 hour. […] One hour later, the change of the cellular glutathione level was measured.

liver cells [7] = assay: Action to increase the glutathione levels in the liver cells (primary cultured hepatocytes); type: cell-based, mice; conditions: 1 mM, 100 = before addition
Experimental: Hepatocyte (sample) was prepared according to the method of Nakamura et al. published in the Protein, Nucleic Acid, and Enzyme, vol. 24, pp 55-76 (1981), partly adopting the method of Wang et al. reported in the In Vitro, vol. 21, pp 526-530 (1985). The liver of mice was purfused with 0.05% collagenase, and cells were collected by centrifugation, and were further centrifuged with percoll to collect the parenchymal hepatocytes. The obtained hepatocytes were dispersed in the Williams' medium E containing 10% bovine fetal serum, dexamethasone (10^-6 M), insulin (1 μg/ml), and antibiotic, and were inoculated into the culture plate at a density of 1×10^5 cells/0.2 ml/cm^2. After unattached cells were removed once 1.5 hours later, the cultivation was continued at 37° C. in an atomosphere of 5% CO2 -95% air. The compound of this invention was added to the culture system to a concentration of 1 mM to measure the time lapsed changes of the cellular glutathione level according to the method reported by Owens and Belcher, Biochem. J., vol. 94, pp 705-711 (1965) and Tietze, Anal. Biochem., vol. 27, pp 502-522 (1969). The similar measurements were also made without the addition of the compound for comparison.

ICR male mice [8] = assay: Action to increase tissue glutathione levels in mice; type: in vivo; conditions: 9-day old mice
Experimental: ICR male mice (9-day old) were subcutaneously given 2.5 mmol/kg of the compound of this invention (r-Glu-Cys OET) or control compounds (glutathione (GSH), γ-L-glutamyl-L-cysteine (r-Glu-Cys)) four times at 2.5-hour intervals. The mice were dissected and their livers and kidneys were removed before the administration and every 2.5 hour after the administration to have their glutathione (GSH) level determined. […]

ICR male mice [9] = assay: Mitigation of decrease of tissue glutathione levels, compound and L-buthionine sulfoximine given alternately to mice; type: in vivo; conditions: 2.5 mmol/kg s.c. alternately with L-buthionine sulfoximine 4 mmol/kg; versus saline
Experimental: The compound of this invention was administered in the same way as Example 6, and L-buthionine sulfoximine (BSO) was administered likewise in dosage of 4 mmol/kg one hour after every administration of said compound. The contents of glutathione in the livers and kedneys were measured according to the methods described in Example 6 every 2.5 hours after the initial administration of the present compound. As controls, saline was administered in place of the present compound to take the similar measurements. FIGS. 2A and 2B shown the results.

ICR male mice [10] = assay: Recovery of tissue glutathione levels in mice pretreated with L-buthionine sulfoximine; type: in vivo; conditions: 2.5 mmol/kg s.c. 4 times, day after L-buthionine sulfoximine 4 mmol/kg x4
Experimental: ICR male mice (9-day old) were given L-buthionine sulfoximine in dosage of 4 mmol/kg four times at an interval of 2.5 hours to decrease their tissue glutathione levels beforehand. The next day, the mice were given subcutaneously 2.5 mmol/kg of the present compound or saline 4 times at an interval of 2.5 hours. Glutathione monoethyl ester (GSHOET) was also given likewise in dosage of 2.5 mmol/kg as a control. The contents of glutathione in the livers and kidneys were measured according to the methods described in Example 6.

ICR male mice [11] = assay: Detoxification of renal toxicity induced by cisplatin (BUN); type: in vivo; conditions: cisplatin 20 mg/kg i.p. + compound 2.5 mmol/kg i.p. 4 times a day for 5 days; one week after cisplatin
Excerpt: The control groups were given saline instead of the present compound.

[12] = 1 mM added for 2 hours after removal of D,L-buthionine sulfoximine (0.5 mM, 16 hours)
[13] = L-buthionine sulfoximine + compound 1.25 mmol/kg s.c.
[14] = L-buthionine sulfoximine + compound 1.25 mmol/kg
[15] = L-buthionine sulfoximine + compound 2.5 mmol/kg
[16] = L-buthionine sulfoximine 4 mmol/kg alone
[17] = L-buthionine sulfoximine + compound 2.50 mmol/kg s.c.
[18] = 2.5 mmol/kg subcutaneously four times at 2.5-hour intervals

CCCCS(=N)(=O)CCC(N)C(=O)O [D,L-buthionine sulfoximine, D,L-buthionine-sulfoximine, reference compound]
Cellular glutathione level (relative value) (liver cells [1]; D,L-buthionine sulfoximine 0.3 mM alone): 17 | Cellular glutathion level (relative value) (liver cells [2]; D,L-buthionine sulfoximine 0.5 mM, 16 hours): 1

N[C@@H](CCC(=O)N[C@@H](CS)C(=O)NCC(=O)O)C(=O)O [Glutathione, glutathione]
Cellular glutathion level (relative value) (liver cells [2]; [12]): 10 | GPT activity of culture supernatant (liver cells [3]): 60 until/ml | Survival rate (liver cells [3]): 10% | Cataract development rate [4, 13]: 75.0% | Cataractous eye rate [4, 13]: 70.8% | Surviving rate (mouse newborns; [14]): 100% | Surviving rate (mouse newborns; [15]): 50% | Effect on increment of animals' body weight suppressed by the toxicity of BSO (mouse newborns): such effect was not seen | half life in blood [5]: several minutes

CCCCS(=N)(=O)CCC(N)C(=O)O [L-buthionine sulfoximine, reference compound]
Cataract development rate [4, 16]: 91.7% | Cataractous eye rate [4, 16]: 91.7% | Surviving rate (mouse newborns; [16]): 100%

ClC(Cl)(Cl)Cl [carbon tetrachlodie, carbon tetrachloride, reference compound]
Cellular glutathione level (relative value) (liver cells [6]; after carbon tetrachloride 0.5 μl/ml, 1 hour): 33

CCOC(=O)[C@H](CSSC[C@H](NC(=O)CC[C@H](N)C(=O)O)C(=O)OCC)NC(=O)CC[C@H](N)C(=O)O [γ-L-glutamyl-L-cystein ethyl ester of oxidized type dimer]
Cataract development rate [4, 17]: 30.0% | Cataractous eye rate [4, 17]: 35.0% | Surviving rate (mouse newborns; [15]): 100%

CCOC(=O)[C@H](CS)NC(=O)CC[C@H](N)C(=O)O [γ-L-glutamyl-L-cysteine ethyl ester]
Cellular glutathione level (relative value) (liver cells [7]; 0.5 hours): 140 | Cellular glutathione level (relative value) (liver cells [7]; 1 hour): 170 | Cellular glutathione level (relative value) (liver cells [7]; 2 hours): 200 | Cellular glutathione level (relative value) (liver cells [1]; coexistence of D,L-buthionine sulfoximine 0.3 mM and compound 1 mM): 30 | Cellular glutathion level (relative value) (liver cells [2]; [12]): 50 | GPT activity of culture supernatant (liver cells [3]): 3 until/ml | Survival rate (liver cells [3]): 100% | Cellular glutathione level (relative value) (liver cells [6]; 1 mM added after removal of carbon tetrachloride, one hour later): 67 | Tissue glutathione level, kidney (FIG. 1B) (ICR male mice [8]; [18]): far more excellent effect than glutathione and γ-L-glutamyl-L-cysteine in increasing the tissue glutathione levels | Tissue glutathione level, liver (FIG. 1A) (ICR male mice [8]; [18]): far more excellent effect than glutathione and γ-L-glutamyl-L-cysteine in increasing the tissue glutathione levels | SH levels in eyeballs, DTNB method (FIG. 1C) (ICR male mice [8]; 5 mmol/kg): improve the SH levels remarkably | Tissue glutathione level, kidney (FIG. 2B) (ICR male mice [9]): mitigate the decrease of tissue glutathione levels | Tissue glutathione level, liver (FIG. 2A) (ICR male mice [9]): mitigate the decrease of tissue glutathione levels | Recovery of tissue glutathione level, kidney (FIG. 3B) (ICR male mice [10]): far more excellent effect in making the tissular glutathion level recover to the normal level as compared with glutathione monoethyl ester | Recovery of tissue glutathione level, liver (FIG. 3A) (ICR male mice [10]): same effectiveness as glutathione monoethyl ester | Cataract development rate [4, 13]: 50.0% | Cataractous eye rate [4, 13]: 41.7% | Cataract development rate [4, 17]: 0% | Cataractous eye rate [4, 17]: 0% | Effect on increment of animals' body weight suppressed by the toxicity of BSO (mouse newborns): showed an effect to mitegate suppressed increment of animals' body weight | BUN (ICR male mice [11]): 35.7 mg/dL

N[C@@H](CCC(=O)N[C@@H](CS)C(=O)O)C(=O)O [γ-L-glutamyl-L-cysteine]
Cellular glutathion level (relative value) (liver cells [2]; [12]): 10 | GPT activity of culture supernatant (liver cells [3]): 60 until/ml | Survival rate (liver cells [3]): 10% | Cataract development rate [4, 13]: 66.7% | Cataractous eye rate [4, 13]: 77.8% | Surviving rate (mouse newborns; [14]): 75% | Surviving rate (mouse newborns; [15]): 0% | Effect on increment of animals' body weight suppressed by the toxicity of BSO (mouse newborns): such effect was not seen
